We go through 10 compounds from patent publication US12577247B2 (BUGWORKS RESEARCH, INC., priority 2021, dated 2026).

The structures appear in SMILES notation.

Assay [1] addresses T1, A2A receptor (Homo sapiens, UniProt P29274).
T1 construct: host or cells: HEK-293
Kind of assay: A2aR antagonism IC50, cAMP TR-FRET in HEK-293 cells, high concentration of adenosine (30 μM).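 Note: compounds added 10 min before adenosine, then 30 min stimulation at room temperature in buffer with 100 µM rolipram and 30 µM EHNA, signal read 1 h after detection reagents.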 The assay is classed as cell-based. The following applies: HEK-293 cells expressing A2A receptor; agonist adenosine 30 μM; 2% HSA; inhibition of cAMP; read-out: A2AR IC50 (nM) (@30 μM Adenosine). For orientation: TR-FRET usually uses a lanthanide donor and a delayed reading to cut background.

The target of assay [2] is T2, A2B receptor (Homo sapiens, UniProt P29275).
T2 sequence (P29275 1-332): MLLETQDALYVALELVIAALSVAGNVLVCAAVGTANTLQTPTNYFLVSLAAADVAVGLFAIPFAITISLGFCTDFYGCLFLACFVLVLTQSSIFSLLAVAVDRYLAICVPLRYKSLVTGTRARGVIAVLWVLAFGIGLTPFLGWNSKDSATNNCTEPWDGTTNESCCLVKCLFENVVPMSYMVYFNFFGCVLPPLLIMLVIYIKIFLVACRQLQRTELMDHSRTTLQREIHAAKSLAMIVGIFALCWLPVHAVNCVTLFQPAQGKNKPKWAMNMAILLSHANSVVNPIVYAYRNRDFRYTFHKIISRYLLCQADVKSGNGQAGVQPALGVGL
Kind of assay: A2bR antagonism IC50, cAMP TR-FRET in HEK-293 cells, high concentration of adenosine (30 μM).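 Note: compounds preincubated 10 min with cells, then adenosine stimulation 30 min at room temperature in buffer with Rolipram 100 µM and EHNA 30 µM, TR-FRET read after 1 h.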 The following applies: A2BR IC50 (nM) (@30 μM Adenosine), HEK-293 cells expressing A2B receptor; agonist adenosine 30 μM; 2% HSA; inhibition of cAMP.
Description: A Time-Resolved Fluorescence Energy Transfer (TR-FRET) assay was used to show the inhibition of this cAMP production in HEK cells upon treatment with compounds of the Formula I of the present disclosure.
HEK-293 cells expressing A2A receptor (#ES-011-C) or A2B receptor (#ES 013-C) were obtained from PerkinElmer. Cells were maintained in DMEM medium supplemented with 10% FBS and 200 μg/mL of G418 at 37° C. and 5% CO2. The cells were cultured in antibiotic free medium for a period of 16-20 hours prior to the assay. All subsequent steps of the assay are performed at room temperature (22-24° C.). […] About 1500 cells per well were pre-incubated for 10 minutes with the compounds of the present invention before adding the agonist Adenosine at a high concentration (30 μM) for a total stimulation time of 30 minutes. […] The assays were conducted in a stimulation buffer containing 1×DMEM, 5 mM HEPES, 2% Human serum albumin (HSA), 100 μM Rolipram and 30 μM erythro-9-(2-hydroxy-3-nonyl) adenine (EHNA). Serial dilutions of compounds were made in stimulation buffer to achieve a final concentration of high micromolar in a reaction volume of 10 μL. The total reaction volume was 10 μL (5 μL of cells, 2.5 μL of antagonist and 2.5 μL of agonist). […] The stimulation was ended, and the reaction completed by adding 5 μL of 4× Eu-cAMP tracer working solution and 5 μL of 4× ULight-anti-cAMP working solution. The TR FRET signal was measured after 1-hour incubation using a Tecan M1000 or a PerkinElmer Victor Nivo plate reader.

T1 sequence (P29274 whole entry): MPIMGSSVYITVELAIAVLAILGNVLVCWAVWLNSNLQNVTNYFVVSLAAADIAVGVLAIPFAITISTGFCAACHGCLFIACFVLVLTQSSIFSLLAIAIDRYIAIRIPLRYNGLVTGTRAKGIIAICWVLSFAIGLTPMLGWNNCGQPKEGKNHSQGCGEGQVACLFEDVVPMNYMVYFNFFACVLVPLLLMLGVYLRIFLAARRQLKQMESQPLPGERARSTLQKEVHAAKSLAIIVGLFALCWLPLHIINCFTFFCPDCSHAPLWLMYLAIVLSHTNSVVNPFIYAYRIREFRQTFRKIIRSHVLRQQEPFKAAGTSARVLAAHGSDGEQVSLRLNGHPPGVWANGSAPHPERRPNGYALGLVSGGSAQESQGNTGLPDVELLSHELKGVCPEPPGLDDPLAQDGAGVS

One may read the IC50 as the concentration that gives 50% inhibition. On to `CCc1c(C)nn2c(N)c(C#N)c(NCCc3cccn(CCCN)c3=O)nc12` [Example 136, 7-amino-5-((2-(1-(3-aminopropyl)-2-oxo-1,2-dihydropyridin-3-yl)ethyl)amino)-3-ethyl-2-methylpyrazolo[1,5-a]pyrimidine-6-carbonitrile], for which the IC50 in assay [1] turned out to be 506 nM; in assay [2], 2610 nM.
On to `CCc1c(C)nn2c(N)c(C#N)c(NCCc3cccn(CCOC)c3=O)nc12` [Example 107, 7-amino-3-ethyl-5-((2-(1-(2-methoxyethyl)-2-oxo-1,2-dihydropyridin-3-yl)ethyl)amino)-2-methylpyrazolo[1,5-a] pyrimidine-6-carbonitrile], for which the IC50 is 224 nM in assay [1] and 1550 nM in assay [2].
With `CCc1c(C)nn2c(N)c(C#N)c(NCCc3cccn(C)c3=O)nc12` [Example 88, 7-amino-3-ethyl-2-methyl-5-((2-(1-methyl-2-oxo-1,2-dihydropyridin-3-yl)ethyl)amino) pyrazolo[1,5-a]pyrimidine-6-carbonitrile], the half-inhibitory concentration (IC50) in assay [1] was found to be 286 nM; in assay [2] it was 1300 nM.
For `CCCc1c(C)nn2c(N)c(C#N)c(NCCc3ccn(C4COCC4CO)n3)nc12` (single isomer, unassigned; (-)) [Example 160b, (−) 7-amino-5-((2-(1-(4-(hydroxymethyl)tetrahydrofuran-3-yl)-1H-pyrazol-3-yl)ethyl)amino)-2-methyl-3-propylpyrazolo[1,5-a]pyrimidine-6-carbonitrile], in that order: 341 nM and 1250 nM.
For `CCCc1c(C)nn2c(N)c(C#N)c(NCCc3ccn(C4CCC4CO)n3)nc12` (single isomer, unassigned; (-)) [Example 165b, (−)-7-amino-5-((2-(1-(2-(hydroxymethyl)cyclobutyl)-1H-pyrazol-3-yl)ethyl)amino)-2-methyl-3-propylpyrazolo[1,5-a]pyrimidine-6-carbonitrile], in that order: 1540 nM and 9160 nM.
For `Cc1nn2c(N)c(C#N)c(NCCc3ccn(C4CCC4CO)n3)nc2c1CC1CC1` (centres unmarked) [Example 116, 7-amino-3-(cyclopropylmethyl)-5-((2-(1-(2-(hydroxymethyl)cyclobutyl)-1H-pyrazol-3-yl)ethyl)amino)-2-methylpyrazolo[1,5-a]pyrimidine-6-carbonitrile], in that order: 427 nM and 2100 nM.
With `Cc1nn2c(N)c(C#N)c(NCCc3cc(C)n(C4(CO)CC4)n3)nc2c1Br` [Example 89, 7-amino-3-bromo-5-((2-(1-(1-(hydroxymethyl)cyclopropyl)-5-methyl-1H-pyrazol-3-yl)ethyl)amino)-2-methylpyrazolo[1,5-a]pyrimidine-6-carbonitrile], the IC50 worked out at 66 nM in assay [1] and 2370 nM in assay [2].
For `Cc1nn2c(N)c(C#N)c(NCCc3cccc(CNCCO)n3)nc2c1Cl` [Example 90, 7-amino-3-chloro-5-((2-(6-(((2-hydroxyethyl)amino)methyl)pyridin-2-yl)ethyl)amino)-2-methylpyrazolo[1,5-a]pyrimidine-6-carbonitrile], in that order: 77 nM and 1830 nM.
For `Cc1nn2c(N)c(C#N)c(NCCc3cccn(CCN)c3=O)nc2c1Cl` [Example 125, 7-amino-5-((2-(1-(2-aminoethyl)-2-oxo-1,2-dihydropyridin-3-yl)ethyl)amino)-3-chloro-2-methylpyrazolo[1,5-a] pyrimidine-6-carbonitrile], in that order: 767 nM and more than 15000 nM.
For `Cc1nn2c(N)c(C#N)c(NCCc3ccn(C4(CCO)CC4)n3)nc2c1Cl` [Example 112, 7-amino-3-chloro-5-((2-(1-(1-(2-hydroxyethyl)cyclopropyl)-1H-pyrazol-3-yl)ethyl)amino)-2-methylpyrazolo[1,5-a] pyrimidine-6-carbonitrile], in that order: 84 nM and 10800 nM.
